Results: PMC4596862, “Stereochemical Control in the Still-Wittig Rearrangement Synthesis of Cyclohexyl (Z)-Alkene Inhibitors of Pin1” (PLoS ONE, 2015)

Each molecule was assayed against Pin1 (Homo sapiens, UniProt Q13526) (assay: protease-coupled PPIase assay (pNA release at […] nm, […]°C)).
Assay type: biochemical

Pin1, sequence (Q13526 whole entry): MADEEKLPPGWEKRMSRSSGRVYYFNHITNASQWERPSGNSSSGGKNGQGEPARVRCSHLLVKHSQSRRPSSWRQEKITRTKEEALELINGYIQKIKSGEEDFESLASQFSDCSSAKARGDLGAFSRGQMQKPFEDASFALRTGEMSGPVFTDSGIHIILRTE

| IC50 [µM] | SMILES |
| --- | --- |
| 85 ± 10 | CC(=O)N[C@@H](/C=C1/CCCC[C@H]1C(=O)NCCc1ccc2ccccc2c1)COP(=O)(O)O [(2S,5R)-1, Ac–D-pSer–Ψ[(Z)CH = C]–L-Pip–2-(2-naphthyl)ethylamine (NEA)] |
| 52 ± 4 | CC(=O)N[C@H](/C=C1/CCCC[C@@H]1C(=O)NCCc1ccc2ccccc2c1)COP(=O)(O)O [(2R,5S)-1, Ac–L-pSer–Ψ[(Z)CH = C]-D-Pip–NEA] |
| 140 ± 20 | CC(=O)N[C@@H](/C=C1/CCCC[C@@H]1C(=O)NCCc1ccc2ccccc2c1)COP(=O)(O)O [(2S,5S)-1, (2S,5S)-Ac–pSer–Ψ[(Z)CH = C]–pipecolyl(Pip)–2-(2-naphthyl)ethylamine 1] |
